Earlier results on two molecules are cited in US20240139272A1, “USE OF A SPEARMINT EXTRACT FOR RETINA NEUROTROPHISM” (KEMIN INDUSTRIES, INC., priority 2022, published 2024).

Molecules are shown by their SMILES. Read-outs that look alike come from different tables or passages of the source.

In the series the test system is male Wistar rats. Conditions: for carrageenan-induced increase in paw volume (FIG. 1): 3 and 6 hours, spearmint extract at all doses, RA at the high dose (50 mg/kg), indomethacin 10 mg/kg.

With `O=C(/C=C/c1ccc(O)c(O)c1)O[C@H](Cc1ccc(O)c(O)c1)C(=O)O` [rosmarinic acid], the “carrageenan-induced increase in paw volume (FIG. 1)” value is recorded as “substantially attenuated”. For the same molecule, for the setting “15 mg/kg intraperitoneal, 3 hours”, the “paw volume increase compared to baseline” value is listed as 20%. Also, the “paw volume increase compared to baseline” value (15 mg/kg intraperitoneal, 6 hours) is 10%. Further, the “paw volume increase compared to baseline” value (50 mg/kg intraperitoneal, 3 hours) is given as 7%. Under “50 mg/kg intraperitoneal, 6 hours”, the “paw volume increase compared to baseline” value is 5%.
Turning to `COc1ccc2c(c1)c(CC(=O)O)c(C)n2C(=O)c1ccc(Cl)cc1` [Indomethacin], the “carrageenan-induced increase in paw volume (FIG. 1)” value was “substantially attenuated”. Further, where the note is “10 mg/kg intraperitoneal, 3 hours post-injection of carrageenan”, the “paw volume increase compared to baseline” value was 6%. The “paw volume increase compared to baseline” value (10 mg/kg intraperitoneal, 6 hours post-injection of carrageenan) was 3%.
